# From BindingDB's records for doi:10.1021/jm00051a003 (University of Washington, 1995)
# Test: Tested for the binding affinity against the Delta opioid receptor in guinea pig brain using [3H]DPDPE
row,SMILES,IC50
1,Oc1ccc2c3c1OC1[C@@H](OCc4ccc5ccccc5c4)CCC4(O)C(C2)N(CC2CC2)CCC314 (stereo not given in full),0.02 µM
2,Oc1ccc2c3c1OC1[C@H](OCc4ccc5ccccc5c4)CCC4(O)C(C2)N(CC2CC2)CCC314 (stereo not given in full),0.025 µM
3,Oc1ccc2c3c1OC1[C@@H](OCc4cccc5ccccc45)CCC4(O)C(C2)N(CC2CC2)CCC314 (stereo not given in full),0.0066 µM
4,Oc1ccc2c3c1OC1[C@@H](OCc4ccc(-c5ccccc5)cc4)CCC4(O)C(C2)N(CC2CC2)CCC314 (stereo not given in full),0.019 µM
5,Oc1ccc2c3c1OC1[C@@H](OCc4ccccc4)CCC4(O)C(C2)N(CC2CC2)CCC314 (stereo not given in full),0.0014 µM
6,Oc1ccc2c3c1OC1[C@H](OCc4cccc5ccccc45)CCC4(O)C(C2)N(CC2CC2)CCC314 (stereo not given in full),0.0055 µM
7,Oc1ccc2c3c1OC1[C@@H](OCc4c5ccccc5cc5ccccc45)CCC4(O)C(C2)N(CC2CC2)CCC314 (stereo not given in full),0.036 µM
8,Oc1ccc2c3c1OC1[C@H](OCc4ccc(-c5ccccc5)cc4)CCC4(O)C(C2)N(CC2CC2)CCC314 (stereo not given in full),0.011 µM
9,Oc1ccc2c3c1OC1[C@H](OCc4c5ccccc5cc5ccccc45)CCC4(O)C(C2)N(CC2CC2)CCC314 (stereo not given in full),0.048 µM
10,"O=C(COC1CCC2(O)C3Cc4ccc(O)c5c4C2(CCN3CC2CC2)C1O5)C1[C@H]2C[C@@H]3C[C@@H](C[C@H]1C3)C2 (stereo partly drawn) [17-(cyclopropylmethyl)-4,5alpha-epoxy-3,14-dihydroxy-6beta-morphinanyl 2-adamantyl-2-oxoethylether]",0.03 µM
